Data from patent US20200261375A1, “Use Of (+)-2-Borneol In Preparation Of Drug For Promoting Upregulation Of Expression Of Sphingosine Kinase-1 And/Or BDNF” (SUZHOU PHARMAVAN CO, LTD., priority 2017, published 2020).

How the values were obtained:
Assay type in all cases: in vivo
[1] = tested on: sphingosine kinase-1 (Sphk1); experiment: Rat model of focal cerebral ischemia-reperfusion (MCAO), genome-wide expression profiling of brain tissue around the infarct area: Sphk1; conditions: 2 mg/kg once by tail vein injection 2 hours after ischemia-reperfusion, brain tissue around the infarct area 48 hours after reperfusion, relative to the sham-operated group / model group
Experimental: (§1) Rat model of focal cerebral ischemia-reperfusion A rat model of middle cerebral artery occlusion (MCAD)-induced cerebral ischemia-reperfusion was prepared by thread occlusion of the internal carotid artery. A drug was administered once by tail vein injection 2 hours after ischemia-reperfusion. One dose group was set for (+)-2-borneol, i.e. 2 mg/kg. 48 hours after the cerebral ischemia-reperfusion, about a soybean size of brain tissue around the infarct area was harvested, sent to CapitalBio Technology Inc., Beijing, and subjected to genome-wide expression profiling by using Affymetrix GeneChip Rat Genome 230 2.0 Array Affymetrix Rat (Latin: Rattus norvegicus) Genome 230 2.0 chip.

[2] = tested on: mouse model of focal cerebral motor cortex ischemia; experiment: Mouse model of focal motor cortex ischemia (photochemical), cylinder test; conditions: 3.0, 1.5, 0.75 mg/kg tail vein injection, 14 administrations, Day 14, 28, 42 after ischemic injury
Experimental: (§2) Long-term pharmacodynamic assay of (+)-2-borneol in a mouse model of focal motor cortex ischemia A mouse model of focal cerebral motor cortex ischemia was induced by photochemical method. Three dose groups were set for (+)-2-borneol, i.e. 3.0, 1.5, 0.75 mg/kg, respectively. Edaravone at a dose of 9 mg/kg was used as a positive control. A drug was administered once by tail vein injection 2 hours after cortex ischemia, and then administered every 24 hours, for a total of 14 administrations. A grid test was used to determine respectively the failure rate of forelimb on Day 14, Day 28 and Day 42 after ischemic injury; and a cylinder test was used to determine the motor asymmetry index of the affected forelimb and the contralateral forelimb on Day 14, Day 28 and Day 42 after ischemic injury to determine its effect on motor function. After the behavior measurements, 5 animals were randomly selected from each group and killed, and the brain was harvested for Golgi staining to determine the neuronal survival and dendritic richness in the penumbra area.

[3] = tested on: mouse model of focal cerebral motor cortex ischemia; experiment: Mouse model of focal motor cortex ischemia (photochemical), grid test; conditions: 3.0, 1.5, 0.75 mg/kg tail vein injection, Day 14, 28, 42 after ischemic injury
Experimental: as §2

[4] = tested on: mouse model of focal cerebral motor cortex ischemia; experiment: Mouse model of focal motor cortex ischemia (photochemical), Golgi staining of brain; conditions: Golgi staining after the behavior measurements; 3.0, 1.5, 0.75 mg/kg tail vein injection, 14 administrations
Experimental: as §2

[5] = tested on: brain-derived neurotrophic factor (BDNF); experiment: Rat model of focal cerebral ischemia-reperfusion (MCAO), genome-wide expression profiling of brain tissue around the infarct area: BDNF; conditions: 2 mg/kg once by tail vein injection 2 hours after ischemia-reperfusion, brain tissue around the infarct area 48 hours after reperfusion, relative to the sham-operated group
Experimental: as §1

CC1(C)[C@@H]2CC[C@@]1(C)[C@@H](O)C2 [(+)-2-borneol]
sphingosine kinase-1 (Sphk1) expression up-regulated [1]: 2.64 fold
asymmetry index of both forelimbs [2]: significant decreases
motor function of mice with photochemically induced injury ([3]; 14 administrations every 24 hours): significantly improve
failure rate of the left forelimb (affected side) ([3]; grid test, 14 administrations): significant decreases
dendritic length around the ischemic area [4]: significant improvements
dendritic spine density around the ischemic area [4]: significant improvements
number of dendritic branches around the ischemic area [4]: significant improvements
brain-derived neurotrophic factor (BDNF) expression up-regulated [5]: 2.67 fold
